Laboratory results as given in PubChem BioAssay (NCI).
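All cell lines were grown in 96-well plates and treated with compound for 48 hours. TGI denotes the concentration required for complete inhibition of growth.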

Key:
Assay in all cases: inhibition of tumour cell growth, NCI panel, 48 h
[1] = tested on: SK-OV-3 ovarian
[2] = tested on: KM12 colon
[3] = tested on: A549 NSCLC
[4] = tested on: ACHN renal
[5] = tested on: MDA-MB-435
[6] = tested on: OVCAR-3 ovarian
[7] = tested on: U251 CNS
[8] = tested on: BT-549 breast

SMILES | TGI [1] | TGI [2] | TGI [3] | TGI [4] | TGI [5] | TGI [6] | TGI [7] | TGI [8]
CN(NC(=O)c1ccco1)C1=NCCCCN1 | > 100 µM | > 100 µM | > 100 µM | > 100 µM | > 100 µM | > 100 µM | > 100 µM | > 100 µM
N#Cc1c(-c2ccco2)c2c(n(C3OC(CO)C(O)C(O)C3O)c1=S)CCCC2 (stereo not given) | > 100 µM | > 100 µM | > 100 µM | > 100 µM | > 100 µM | > 100 µM |  | 
COc1ccc(-c2nc3ncccn3c2-c2ccc(S(C)=O)cc2)cc1 (stereo not given) | > 100 µM | > 100 µM | > 100 µM | > 100 µM | 53.8 µM | > 100 µM | > 100 µM | > 100 µM
CCOC(=O)c1cc2cc(Cc3ccc4[nH]c(C(=O)OCC)cc4c3)ccc2[nH]1 | 55.4 µM | > 100 µM |  | 44 µM | > 100 µM | > 100 µM | 29.9 µM | 26.8 µM
COC(=O)c1ccc(CN2CCc3c([nH]c4ccccc34)C2CO)o1 (stereo not given) | > 10 µM | > 10 µM | > 10 µM |  | > 10 µM | > 10 µM |  | > 10 µM
C[N+]1(C)C2Cc3ccccc3C1Cc1ccccc12 | > 100 µM | > 100 µM | > 100 µM | > 100 µM | > 100 µM | > 100 µM | > 100 µM | > 100 µM
COc1ccc(C2SCC(=O)N2N=C2NC(=O)CC(=O)N2)cc1 (stereo not given) | > 100 µM | > 100 µM | > 100 µM | > 100 µM | > 100 µM | > 100 µM | > 100 µM | > 100 µM
CCC1(O)C=CC(=O)C=C1 | > 100 µM | 33.5 µM | > 100 µM | 49 µM | > 100 µM | 69.6 µM | 34.9 µM | > 100 µM
CC12CC3c4ccccc4CN1C3(c1ccccc1)OC2=O (stereo not given) | > 100 µM | > 100 µM | > 100 µM | > 100 µM | > 100 µM |  | > 100 µM | > 100 µM
CC1C(c2ccc(N(C)C)cc2)c2cc3c(cc2OC1N1CCCC1)OCO3 (stereo not given) |  | > 100 µM | > 100 µM | > 100 µM | 60.4 µM | > 100 µM | > 100 µM | > 100 µM
CCOC(=O)CC(C)C(C#N)(OP1(=O)OC(c2ccccc2)C(C)N1C)c1ccccc1 (stereo not given) | > 100 µM | > 100 µM | > 100 µM | > 100 µM | > 100 µM | > 100 µM | > 100 µM | > 100 µM
N#CI1OC(=O)c2ccccc21 | > 100 µM | > 100 µM | > 100 µM | > 100 µM | > 100 µM | > 100 µM | > 100 µM | > 100 µM
COC(=O)[C@]1(C)CCCn2c(=O)n(-c3ccccc3)c(=O)n21 | > 100 µM | > 100 µM | > 100 µM | > 100 µM | > 100 µM | > 100 µM | > 100 µM | > 100 µM
O=C(Cc1ccc(Cl)c(Cl)c1)NCCCN1CCN(CCCN2CCCCC2)CC1 | 40.8 µM | 31.2 µM | 49.5 µM | 60.2 µM | 4.11 µM | 80.7 µM | 32.5 µM | 57.4 µM
O=S(=O)(O)c1ccc(NN(c2c(O)ccc3ccccc23)S(=O)(=O)O)cc1 | > 100 µM | > 100 µM | > 100 µM | > 100 µM | > 100 µM | > 100 µM | > 100 µM | > 100 µM
Oc1c(OCc2nnc(CCCCCCCCc3nnc(COc4ccc5ccccc5c4O)n3Nc3ccccc3)n2Nc2ccccc2)ccc2ccccc12 | 27.3 µM | 19 µM | 27.8 µM | 68.7 µM | 19.3 µM | 30.6 µM | 25.5 µM | 25.7 µM
CCOC(=O)c1ccc(NC2Oc3cc4c(cc3C(c3cc(OC)c(OC)c(OC)c3)C2C)OCO4)cc1 (stereo not given) | > 21.1 µM | 3.69 µM | > 73.2 µM | > 63.4 µM | 0.448 µM |  | > 42.5 µM | 6.76 µM
O=c1cnn(C2OC(CO)C(O)C(F)C2O)c(=O)[nH]1 (stereo not given) | > 100 µM | > 100 µM | > 100 µM | > 100 µM | > 100 µM | > 100 µM | > 100 µM | > 100 µM
c1cc(-c2cscc2-c2ccsc2)cs1 | > 100 µM | 38 µM | > 100 µM | > 100 µM | > 100 µM | 89.8 µM | > 100 µM | > 100 µM
COc1ccc(CN2C(=O)CCC/C=C\[C@H]2CI)cc1 | 30 µM | 23 µM | 21.5 µM | 27.3 µM | 25.2 µM | 23.7 µM | 26.5 µM | 33.7 µM
NC1=CN(CCCO)C2=N/C(=C\c3ccco3)C(=O)N12 | > 100 µM | > 100 µM | > 100 µM | > 100 µM | > 100 µM | > 100 µM | > 100 µM | > 100 µM
COc1ccc(-n2sc3ncc(-c4ccccc4)cc3c2=O)cc1 | > 100 µM | > 100 µM | > 100 µM | 48.3 µM | > 100 µM | 47.2 µM | > 100 µM | > 100 µM
COc1ccc2c(c1O)-c1c(OC)c(OC)cc3c1[C@H](C2)[N+](C)(C)CC3 | > 100 µM | > 100 µM | > 100 µM | > 100 µM | > 100 µM | > 100 µM | > 100 µM | > 100 µM
c1ccc(COc2ccc(C[P+](c3ccccc3)(c3ccccc3)c3ccccc3)cc2)cc1 | 3.42 µM | 1.66 µM | 11.3 µM | 6.39 µM | 1.7 µM | 11 µM | 11.8 µM | 3.26 µM
O=C(CCSC(CC(=O)c1ccc(Cl)cc1)c1ccc(Cl)cc1)Nc1ccc(Cl)cc1 (stereo not given) | 42.3 µM | 12.4 µM | 40 µM | 27.5 µM | 25.6 µM | 27.1 µM | 21.1 µM | 27.1 µM
CN1CC(c2ccccc2)=Cc2c1ccc(N)c2N=N | > 100 µM | > 100 µM | > 100 µM | > 100 µM | > 100 µM | > 100 µM | > 100 µM | > 100 µM
